Laboratory results: patent US20150274719A1, “AMINO-SUBSTITUTED IMIDAZO[1,2-A]PYRIDINECARBOXAMIDES AND THEIR USE” (BAYER PHARMA AKTIENGESELLSCHAFT, priority 2012, published 2015)
Where a name gives a salt, the structure may show the parent alone. Read-outs that look alike come from different tables or passages of the source.

Tests used:
[1] = molecular target: T1, recombinant guanylate cyclase reporter cell line (Rattus norvegicus, UniProt P19686+P20595); assay: Action on recombinant guanylate cyclase reporter cell line; type: cell-based; conditions: in some cases mean values from individual determinations
T1 construct: expressed in transfected cells; host or cells: recombinant reporter cell line
T1 sequence (P19686 1-690): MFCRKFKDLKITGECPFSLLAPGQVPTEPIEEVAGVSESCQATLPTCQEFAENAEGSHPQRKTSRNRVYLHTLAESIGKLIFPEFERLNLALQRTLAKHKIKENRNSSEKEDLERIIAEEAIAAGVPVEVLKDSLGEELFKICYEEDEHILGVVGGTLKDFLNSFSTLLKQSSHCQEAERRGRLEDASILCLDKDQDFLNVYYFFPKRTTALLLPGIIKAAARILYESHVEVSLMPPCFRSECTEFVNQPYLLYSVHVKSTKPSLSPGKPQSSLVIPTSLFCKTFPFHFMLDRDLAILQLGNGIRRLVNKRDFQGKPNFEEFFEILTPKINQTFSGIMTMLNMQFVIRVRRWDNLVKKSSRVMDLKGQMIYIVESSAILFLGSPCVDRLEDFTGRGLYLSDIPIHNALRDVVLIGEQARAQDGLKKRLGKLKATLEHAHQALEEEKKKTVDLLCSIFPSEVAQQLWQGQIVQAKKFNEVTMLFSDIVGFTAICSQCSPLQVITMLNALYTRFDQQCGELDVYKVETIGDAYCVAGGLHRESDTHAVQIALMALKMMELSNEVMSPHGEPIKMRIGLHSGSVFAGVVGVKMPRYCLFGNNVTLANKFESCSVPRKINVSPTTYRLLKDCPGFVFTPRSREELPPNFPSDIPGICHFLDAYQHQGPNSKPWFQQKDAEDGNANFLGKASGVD
T1 sequence (P20595 1-619): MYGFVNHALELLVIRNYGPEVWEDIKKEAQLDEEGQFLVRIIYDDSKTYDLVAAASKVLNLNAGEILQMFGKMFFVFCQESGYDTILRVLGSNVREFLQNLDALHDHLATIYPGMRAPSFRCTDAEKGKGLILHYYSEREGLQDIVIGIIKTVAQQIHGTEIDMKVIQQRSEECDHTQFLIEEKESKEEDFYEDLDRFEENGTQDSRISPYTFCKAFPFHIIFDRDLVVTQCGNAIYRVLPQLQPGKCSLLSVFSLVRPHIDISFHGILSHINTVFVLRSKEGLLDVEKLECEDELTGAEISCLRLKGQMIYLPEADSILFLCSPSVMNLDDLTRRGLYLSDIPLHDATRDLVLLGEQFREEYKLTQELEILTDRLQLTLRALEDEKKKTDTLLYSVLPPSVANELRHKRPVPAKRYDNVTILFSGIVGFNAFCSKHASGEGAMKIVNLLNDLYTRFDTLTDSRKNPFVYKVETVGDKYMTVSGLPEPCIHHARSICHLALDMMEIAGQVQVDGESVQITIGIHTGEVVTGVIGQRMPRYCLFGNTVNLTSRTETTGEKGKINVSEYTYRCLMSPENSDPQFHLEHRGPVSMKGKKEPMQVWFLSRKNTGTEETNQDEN
Outline: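 Reported value is the minimal effective concentration (MEC), in some cases a mean of single runs, taken from a recombinant rat guanylate cyclase reporter cell line.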

[2] = Determination of pharmacokinetic parameters following intravenous and oral administration (rats); type: in vivo, male Wistar rats; conditions: intravenous administration in rats
Experimental: B-6. Determination of Pharmacokinetic Parameters Following Intravenous and Oral Administration
The pharmacokinetic parameters of the compounds according to the invention are determined in male CD-1 mice, male Wistar rats and female beagles. Intravenous administration in the case of mice and rats is carried out by means of a species-specific plasma/DMSO formulation, and in the case of dogs by means of a water/PEG400/ethanol formulation. In all species, oral administration of the dissolved substance is performed via gavage, based on a water/PEG400/ethanol formulation. The taking of blood from rats is simplified by inserting a silicone catheter into the right Vena jugularis externa prior to substance administration. The operation is carried out at least one day prior to the experiment with […] and administration of an analgesic (atropin/Rimadyl (3/1) 0.1 ml s.c.). The blood is taken (generally more than 10 time points) within a time window including terminal time points of at least 24 to a maximum of 72 hours after substance administration. When the blood is taken, it is passed into heparinised tubes. Then the blood plasma is obtained by centrifugation and is optionally stored at −20° C. until further processing.
An internal standard (which may also be a chemically unrelated substance) is added to the samples of the compounds according to the invention, calibration samples and qualifiers, and there follows protein precipitation by means of excess acetone. Addition of a buffer solution matched to the LC conditions, and subsequent vortexing, is followed by centrifugation at 1000 g. The supernatant is analysed by LC-MS/MS using C18 reversed-phase columns and variable mobile phase mixtures. The substances are quantified via the peak heights or areas from extracted ion chromatograms of specific selected ion monitoring experiments.
The plasma concentration/time plots determined are used to calculate the pharmacokinetic parameters such as AUC, Cmax, t1/2 (terminal half life), F (bioavailability), MRT (mean residence time) and CL (clearance), using a validated pharmacokinetic calculation program.
Since the substance quantification is carried out in plasma, it is necessary to determine the blood/plasma distribution of the substance in order to be able to adjust the pharmacokinetic parameters correspondingly. For this purpose, a defined amount of substance is incubated in heparinized whole blood of the species in question in a rocking roller mixture for 20 min. After centrifugation at 1000 g, the plasma concentration is measured (by means of LC-MS/MS; see above) and determined by calculating the ratio of the Cblood/Cplasma value.

[3] = male, Wistar, rat, plasma, iv, read-out: MRT

SMILES | MEC (minimal effective concentration) [1] | AUCnorm [2] | CLblood [2] | half-life ([2]; male, Wistar, rat, plasma, iv) | MRT [2, 3] | MRT [2] | t1/2 [2]
Cc1nc2c(OCc3c(F)cccc3F)cc(Cl)cn2c1C(=O)NCC1(N)CCC1 [Example 155, N-[(1-aminocyclobutyl)methyl]-6-chloro-8-[(2,6-difluorobenzyl)oxy]-2-methylimidazo[1,2-a]-pyridine-3-carboxamide trifluoroacetate] | 0.30 µM | 0.97 kg·h/L | 21.2 mL/min/kg | 7.7 h | 11.2 h |  | 
Cc1cc(OCc2c(F)cccc2F)c2nc(C)c(C(=O)NC[C@H]3CCCCN3)n2c1 [Example 173, 8-[(2,6-Difluorobenzyl)oxy]-2,6-dimethyl-N-[(2R)-piperidin-2-ylmethyl]imidazo[1,2-a]pyridine-3-carboxamide] | 0.30 µM | 0.54 kg·h/L | 28 mL/min/kg | 3.3 h | 3.9 h |  | 
Cc1cc(OCc2c(F)ccc(F)c2F)c2nc(C)c(C(=O)NCC(C)(C)N)n2c1 [Example 276, N-(2-Amino-2-methylpropyl)-2,6-dimethyl-8-[(2,3,6-trifluorobenzyl)oxy]imidazo[1,2-a]pyridine-3-carboxamide] | 0.10 µM | 0.70 kg·h/L | 21.2 mL/min/kg | 2.9 h | 4.5 h |  | 
Cc1cc(OCc2c(F)cccc2F)c2nc(C)c(C(=O)NCC3(N)CCCCC3)n2c1 [Example 307, N-[(1-aminocyclohexyl)methyl]-8-[(2,6-difluorobenzyl)oxy]-2,6-dimethylimidazo[1,2-a]pyridine-3-carboxamide] | 0.65 µM | 0.35 kg·h/L | 29.7 mL/min/kg | 6.9 h | 9.8 h |  | 

Next, values leading:

MEC (minimal effective concentration) [1] | AUCnorm [2] | CLblood [2] | half-life ([2]; male, Wistar, rat, plasma, iv) | MRT [2, 3] | MRT [2] | t1/2 [2] | SMILES
0.3 µM | 0.38 kg·h/L | 41.8 mL/min/kg | 4.4 h | 6.8 h |  |  | CCCC(C)(N)CNC(=O)c1c(C)nc2c(OCc3c(F)cccc3F)cc(C(F)F)cn12 (single isomer, unassigned; enantiomer b) [Example 289, ent-N-(2-amino-2-methylpentyl)-8-[(2,6-difluorobenzyl)oxy]-6-(difluoromethyl)-2-methyl-imidazo[1,2-a]pyridine-3-carboxamide Formate (Enantiomer B)]
0.03 µM | 0.56 kg·h/L | 36.2 mL/min/kg |  |  | 4.1 h | 3.2 h | Cc1nc2c(OCc3c(F)cccc3F)cc(C(F)F)cn2c1C(=O)NCC(C)(N)CF (single isomer, unassigned; enantiomer b) [Example 292, ent-N-(2-amino-3-fluoro-2-methylpropyl)-8-[(2,6-difluorobenzyl)oxy]-6-(difluoromethyl)-2-methylimidazo[1,2-a]pyridine-3-carboxamide (Enantiomer B)]
0.30 µM | 1.55 kg·h/L | 8.5 mL/min/kg | 8.6 h | 11.8 h |  |  | Cc1nc2c(OCc3c(F)cccc3F)cc(Cl)cn2c1C(=O)NCC(C)(C)N [Example 73, N-(2-Amino-2-methylpropyl)-6-chloro-8-[(2,6-difluorobenzyl)oxy]-2-methylimidazo[1,2-a]-pyridine-3-carboxamide]
0.10 µM | 0.61 kg·h/L | 16.3 mL/min/kg | 10.3 h | 13.9 h |  |  | C#Cc1cc(OCc2c(F)cccc2F)c2nc(C)c(C(=O)NCC(C)(N)CCC)n2c1 (stereo not drawn) [Example 356, ent-N-(2-amino-2-methylpentyl)-8-[(2,6-difluorobenzyl)oxy]-6-ethynyl-2-methylimidazo[1,2-a]pyridine-3-carboxamide]
